{"source": "ChEMBL document CHEMBL1201862", "about": "“PubChem BioAssay data set” (2004)", "key": {"[1]": {"target": "T1, Caspase-7 (Homo sapiens, UniProt P55210)", "T1 sequence (P55210 whole entry)": "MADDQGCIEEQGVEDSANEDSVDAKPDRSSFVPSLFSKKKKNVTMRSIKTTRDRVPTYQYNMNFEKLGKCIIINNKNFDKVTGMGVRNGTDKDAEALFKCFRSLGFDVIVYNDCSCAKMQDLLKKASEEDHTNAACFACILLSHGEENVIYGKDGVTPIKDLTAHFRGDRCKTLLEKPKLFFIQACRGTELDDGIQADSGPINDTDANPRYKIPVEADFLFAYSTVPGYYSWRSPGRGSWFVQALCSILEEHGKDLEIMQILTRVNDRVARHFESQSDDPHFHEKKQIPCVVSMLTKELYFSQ", "assay": "human caspase-7 inhibitors, dose response, selectivity assay for caspase-6 inhibitor project, biochemical, DEVD-R110 fluorescence, cherry-pick (AID 743295)", "type": "[…]"}, "[2]": {"tested_on": "BJ", "assay": "cytotoxicity toward Ras-transformed BJeLR fibroblasts, dose response, cell-based, alamar blue fluorescence, cherrypicked samples (AID 2631);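 further: confirmatory dose-response assay in RAS-dependent BJ fibroblasts engineered with TERT, LT and ST, with cytotoxicity read by fluorescence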", "type": "functional", "conditions": "Homo sapiens"}, "[3]": {"assay": "HepG2 cell cytotoxicity, dose response, cytotoxicity control for non-replicating M. tuberculosis project (AID 489018)", "type": "functional", "conditions": "Mycobacterium tuberculosis"}, "[4]": {"target": "Ribosomal protein S6 kinase alpha-5 (Homo sapiens, UniProt O75582)", "type": "functional"}, "[5]": {"target": "Mitogen-activated protein kinase kinase kinase 20 (Homo sapiens, UniProt Q9NYL2)", "type": "functional"}, "[6]": {"target": "Serine/threonine-protein kinase PAK 1 (Homo sapiens, UniProt Q13153)", "sequence (Q13153 whole entry)": "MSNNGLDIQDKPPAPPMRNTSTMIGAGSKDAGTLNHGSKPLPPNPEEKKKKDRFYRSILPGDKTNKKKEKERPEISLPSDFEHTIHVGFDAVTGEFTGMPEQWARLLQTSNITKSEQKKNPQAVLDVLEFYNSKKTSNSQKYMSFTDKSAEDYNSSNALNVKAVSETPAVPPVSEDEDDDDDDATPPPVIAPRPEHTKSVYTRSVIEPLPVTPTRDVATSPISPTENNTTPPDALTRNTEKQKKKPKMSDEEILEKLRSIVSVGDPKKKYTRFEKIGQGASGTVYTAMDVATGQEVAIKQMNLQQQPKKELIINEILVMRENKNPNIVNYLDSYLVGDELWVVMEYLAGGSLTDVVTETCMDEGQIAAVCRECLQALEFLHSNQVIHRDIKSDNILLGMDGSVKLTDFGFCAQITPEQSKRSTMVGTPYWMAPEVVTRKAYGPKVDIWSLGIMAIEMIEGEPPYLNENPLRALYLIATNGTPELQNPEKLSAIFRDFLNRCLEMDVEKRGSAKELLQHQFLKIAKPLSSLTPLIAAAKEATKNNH", "type": "functional"}, "[7]": {"target": "Serine/threonine-protein kinase D3 (Homo sapiens, UniProt O94806)", "type": "functional"}, "[8]": {"target": "Glycogen synthase kinase-3 alpha (Homo sapiens, UniProt P49840)", "sequence (P49840 whole entry)": "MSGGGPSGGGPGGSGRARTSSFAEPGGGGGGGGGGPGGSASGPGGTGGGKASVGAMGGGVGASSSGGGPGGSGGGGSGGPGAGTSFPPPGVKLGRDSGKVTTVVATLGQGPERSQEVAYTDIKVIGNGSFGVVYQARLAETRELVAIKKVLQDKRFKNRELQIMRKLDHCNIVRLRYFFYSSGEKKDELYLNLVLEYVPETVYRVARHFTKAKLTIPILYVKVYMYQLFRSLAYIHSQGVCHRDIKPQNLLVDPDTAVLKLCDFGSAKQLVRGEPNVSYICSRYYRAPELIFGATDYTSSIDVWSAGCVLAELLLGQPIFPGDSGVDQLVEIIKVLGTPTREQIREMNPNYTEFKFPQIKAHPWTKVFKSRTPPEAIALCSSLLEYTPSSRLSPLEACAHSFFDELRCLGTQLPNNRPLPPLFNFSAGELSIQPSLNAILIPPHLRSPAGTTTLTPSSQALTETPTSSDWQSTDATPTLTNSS", "type": "functional"}, "[9]": {"target": "Proto-oncogene tyrosine-protein kinase Src (Homo sapiens, UniProt P12931)", "type": "functional"}, "[10]": {"target": "Mitogen-activated protein kinase 13 (Homo sapiens, UniProt O15264)", "sequence (O15264 whole entry)": "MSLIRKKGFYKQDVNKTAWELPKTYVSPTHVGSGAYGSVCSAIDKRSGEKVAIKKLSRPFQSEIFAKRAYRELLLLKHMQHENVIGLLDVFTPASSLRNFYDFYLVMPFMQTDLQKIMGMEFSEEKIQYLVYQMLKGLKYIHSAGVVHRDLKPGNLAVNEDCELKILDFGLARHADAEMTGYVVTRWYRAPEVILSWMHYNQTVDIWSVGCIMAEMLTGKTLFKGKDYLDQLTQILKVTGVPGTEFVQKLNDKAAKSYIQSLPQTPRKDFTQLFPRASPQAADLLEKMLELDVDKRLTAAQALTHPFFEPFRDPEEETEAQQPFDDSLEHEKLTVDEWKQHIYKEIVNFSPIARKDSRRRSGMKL", "type": "functional"}, "[11]": {"target": "Fibroblast growth factor receptor 3 (Homo sapiens, UniProt P22607)", "type": "functional"}, "[12]": {"target": "Mitogen-activated protein kinase kinase kinase kinase 2 (Homo sapiens, UniProt Q12851)", "sequence (Q12851 whole entry)": "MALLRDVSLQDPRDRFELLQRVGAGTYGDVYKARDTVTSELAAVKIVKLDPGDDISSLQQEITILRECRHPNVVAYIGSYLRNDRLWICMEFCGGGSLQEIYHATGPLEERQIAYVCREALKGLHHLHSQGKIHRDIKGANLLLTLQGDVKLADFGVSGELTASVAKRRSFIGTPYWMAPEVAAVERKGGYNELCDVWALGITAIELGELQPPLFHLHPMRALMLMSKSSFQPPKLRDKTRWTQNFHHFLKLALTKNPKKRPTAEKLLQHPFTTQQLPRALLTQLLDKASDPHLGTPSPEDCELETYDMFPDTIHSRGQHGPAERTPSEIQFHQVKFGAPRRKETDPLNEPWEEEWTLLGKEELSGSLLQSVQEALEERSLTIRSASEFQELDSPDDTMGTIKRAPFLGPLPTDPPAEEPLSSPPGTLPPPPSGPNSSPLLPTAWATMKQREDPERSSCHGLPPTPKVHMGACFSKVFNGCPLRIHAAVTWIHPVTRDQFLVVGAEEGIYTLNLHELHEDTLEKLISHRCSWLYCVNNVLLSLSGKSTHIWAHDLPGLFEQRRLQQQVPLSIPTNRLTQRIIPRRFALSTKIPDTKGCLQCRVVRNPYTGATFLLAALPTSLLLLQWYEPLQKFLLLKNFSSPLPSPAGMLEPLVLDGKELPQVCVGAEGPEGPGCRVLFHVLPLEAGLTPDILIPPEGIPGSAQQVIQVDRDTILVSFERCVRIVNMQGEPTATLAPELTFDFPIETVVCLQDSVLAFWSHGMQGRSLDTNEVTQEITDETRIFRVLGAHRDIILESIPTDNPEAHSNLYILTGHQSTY", "type": "functional"}, "[13]": {"target": "Serine/threonine-protein kinase pim-1 (Homo sapiens, UniProt P11309)", "sequence (P11309 whole entry)": "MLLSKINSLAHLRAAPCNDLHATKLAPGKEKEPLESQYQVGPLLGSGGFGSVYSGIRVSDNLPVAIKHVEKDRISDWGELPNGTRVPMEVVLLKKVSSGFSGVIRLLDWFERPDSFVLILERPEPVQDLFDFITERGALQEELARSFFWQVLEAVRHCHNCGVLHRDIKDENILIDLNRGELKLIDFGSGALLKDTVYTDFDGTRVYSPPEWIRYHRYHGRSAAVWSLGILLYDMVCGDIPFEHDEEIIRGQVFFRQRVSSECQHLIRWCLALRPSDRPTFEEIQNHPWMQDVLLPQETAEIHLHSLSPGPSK", "type": "functional"}, "[14]": {"target": "Homeodomain-interacting protein kinase 2 (Homo sapiens, UniProt Q9H2X6)", "type": "functional"}, "[15]": {"target": "Serine/threonine-protein kinase PAK 4 (Homo sapiens, UniProt O96013)", "type": "functional"}, "[16]": {"target": "Mitogen-activated protein kinase kinase kinase kinase 4 (Homo sapiens, UniProt O95819)", "sequence (O95819 whole entry)": "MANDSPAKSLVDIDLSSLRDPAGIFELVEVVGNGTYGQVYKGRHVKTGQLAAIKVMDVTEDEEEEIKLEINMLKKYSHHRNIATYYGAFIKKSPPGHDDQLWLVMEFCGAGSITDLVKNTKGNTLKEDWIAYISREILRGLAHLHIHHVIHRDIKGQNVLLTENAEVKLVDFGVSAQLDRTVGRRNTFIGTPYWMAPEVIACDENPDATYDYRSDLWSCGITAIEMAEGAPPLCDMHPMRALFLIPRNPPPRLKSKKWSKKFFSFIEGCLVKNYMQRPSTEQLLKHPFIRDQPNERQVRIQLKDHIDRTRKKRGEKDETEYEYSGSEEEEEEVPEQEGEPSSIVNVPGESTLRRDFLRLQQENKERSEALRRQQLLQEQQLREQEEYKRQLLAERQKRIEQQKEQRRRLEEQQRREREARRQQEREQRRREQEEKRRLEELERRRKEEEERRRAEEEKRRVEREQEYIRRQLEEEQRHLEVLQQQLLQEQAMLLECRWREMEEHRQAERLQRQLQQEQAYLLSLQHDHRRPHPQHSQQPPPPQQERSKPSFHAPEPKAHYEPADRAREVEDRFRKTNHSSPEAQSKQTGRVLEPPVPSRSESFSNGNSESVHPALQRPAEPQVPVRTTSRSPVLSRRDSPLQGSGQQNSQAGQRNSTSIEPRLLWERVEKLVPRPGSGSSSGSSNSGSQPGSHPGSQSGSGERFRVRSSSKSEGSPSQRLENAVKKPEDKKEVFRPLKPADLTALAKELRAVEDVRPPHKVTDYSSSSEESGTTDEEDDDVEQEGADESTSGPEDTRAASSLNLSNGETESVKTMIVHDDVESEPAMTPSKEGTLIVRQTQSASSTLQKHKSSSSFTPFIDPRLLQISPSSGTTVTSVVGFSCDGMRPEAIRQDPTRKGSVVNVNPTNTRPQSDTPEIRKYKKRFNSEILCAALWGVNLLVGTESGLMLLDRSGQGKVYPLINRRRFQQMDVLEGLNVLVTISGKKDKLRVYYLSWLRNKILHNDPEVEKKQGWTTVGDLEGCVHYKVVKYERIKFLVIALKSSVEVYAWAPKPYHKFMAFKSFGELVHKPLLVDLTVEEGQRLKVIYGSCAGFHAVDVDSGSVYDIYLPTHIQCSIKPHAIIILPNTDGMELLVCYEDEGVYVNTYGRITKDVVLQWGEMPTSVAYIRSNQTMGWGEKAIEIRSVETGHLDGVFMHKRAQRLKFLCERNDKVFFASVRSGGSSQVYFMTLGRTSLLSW", "type": "functional"}, "[17]": {"target": "Tyrosine-protein kinase ABL1 (Homo sapiens, UniProt P00519)", "type": "functional"}, "[18]": {"target": "MAP kinase-activated protein kinase 5 (Homo sapiens, UniProt Q8IW41)", "sequence (Q8IW41 whole entry)": "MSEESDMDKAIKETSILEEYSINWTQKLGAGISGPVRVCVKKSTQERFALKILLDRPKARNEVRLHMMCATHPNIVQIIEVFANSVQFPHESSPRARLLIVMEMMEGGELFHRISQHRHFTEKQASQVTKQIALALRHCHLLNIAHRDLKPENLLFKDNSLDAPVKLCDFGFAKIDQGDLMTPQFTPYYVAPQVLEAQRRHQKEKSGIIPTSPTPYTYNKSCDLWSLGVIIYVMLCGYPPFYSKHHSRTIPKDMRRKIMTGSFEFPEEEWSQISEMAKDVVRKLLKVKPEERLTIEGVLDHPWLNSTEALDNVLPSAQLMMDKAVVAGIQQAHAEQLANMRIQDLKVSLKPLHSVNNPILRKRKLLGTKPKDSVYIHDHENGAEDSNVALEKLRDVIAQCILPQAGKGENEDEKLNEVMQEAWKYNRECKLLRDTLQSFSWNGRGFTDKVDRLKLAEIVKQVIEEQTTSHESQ", "type": "functional"}, "[19]": {"target": "Casein kinase II subunit alpha (Homo sapiens, UniProt P68400)", "type": "functional"}, "[20]": {"target": "Inhibitor of nuclear factor kappa-B kinase subunit alpha (Homo sapiens, UniProt O15111)", "type": "functional"}, "[21]": {"target": "Tyrosine-protein kinase ITK/TSK (Homo sapiens, UniProt Q08881)", "type": "functional"}, "[22]": {"target": "High affinity nerve growth factor receptor (Homo sapiens, UniProt P04629)", "sequence (P04629 whole entry)": "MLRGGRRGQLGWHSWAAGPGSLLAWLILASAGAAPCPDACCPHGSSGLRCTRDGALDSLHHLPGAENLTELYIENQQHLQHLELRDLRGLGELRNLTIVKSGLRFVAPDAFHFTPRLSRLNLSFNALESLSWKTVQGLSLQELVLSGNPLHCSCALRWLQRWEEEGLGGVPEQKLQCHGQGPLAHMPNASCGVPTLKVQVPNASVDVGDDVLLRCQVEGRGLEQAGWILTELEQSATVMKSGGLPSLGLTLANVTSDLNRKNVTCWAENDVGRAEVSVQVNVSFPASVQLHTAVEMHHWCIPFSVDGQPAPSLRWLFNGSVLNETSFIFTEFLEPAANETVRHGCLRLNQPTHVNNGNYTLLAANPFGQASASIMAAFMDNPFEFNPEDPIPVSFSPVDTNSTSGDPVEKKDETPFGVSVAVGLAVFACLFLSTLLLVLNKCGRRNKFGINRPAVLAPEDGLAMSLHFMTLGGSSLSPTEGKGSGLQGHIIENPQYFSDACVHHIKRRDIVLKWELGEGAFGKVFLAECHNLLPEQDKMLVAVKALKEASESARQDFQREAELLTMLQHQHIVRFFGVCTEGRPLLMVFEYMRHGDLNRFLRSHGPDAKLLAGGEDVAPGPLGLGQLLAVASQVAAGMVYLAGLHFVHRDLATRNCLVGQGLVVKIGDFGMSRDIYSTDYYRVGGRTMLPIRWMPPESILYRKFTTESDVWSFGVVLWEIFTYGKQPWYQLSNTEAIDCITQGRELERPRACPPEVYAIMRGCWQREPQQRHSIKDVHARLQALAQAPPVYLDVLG", "type": "functional"}, "[23]": {"target": "cAMP-dependent protein kinase catalytic subunit alpha (Homo sapiens, UniProt P17612)", "type": "functional"}, "[24]": {"target": "T2, Hexokinase HKDC1 (Homo sapiens, UniProt Q2TB90)", "T2 sequence (Q2TB90 whole entry)": "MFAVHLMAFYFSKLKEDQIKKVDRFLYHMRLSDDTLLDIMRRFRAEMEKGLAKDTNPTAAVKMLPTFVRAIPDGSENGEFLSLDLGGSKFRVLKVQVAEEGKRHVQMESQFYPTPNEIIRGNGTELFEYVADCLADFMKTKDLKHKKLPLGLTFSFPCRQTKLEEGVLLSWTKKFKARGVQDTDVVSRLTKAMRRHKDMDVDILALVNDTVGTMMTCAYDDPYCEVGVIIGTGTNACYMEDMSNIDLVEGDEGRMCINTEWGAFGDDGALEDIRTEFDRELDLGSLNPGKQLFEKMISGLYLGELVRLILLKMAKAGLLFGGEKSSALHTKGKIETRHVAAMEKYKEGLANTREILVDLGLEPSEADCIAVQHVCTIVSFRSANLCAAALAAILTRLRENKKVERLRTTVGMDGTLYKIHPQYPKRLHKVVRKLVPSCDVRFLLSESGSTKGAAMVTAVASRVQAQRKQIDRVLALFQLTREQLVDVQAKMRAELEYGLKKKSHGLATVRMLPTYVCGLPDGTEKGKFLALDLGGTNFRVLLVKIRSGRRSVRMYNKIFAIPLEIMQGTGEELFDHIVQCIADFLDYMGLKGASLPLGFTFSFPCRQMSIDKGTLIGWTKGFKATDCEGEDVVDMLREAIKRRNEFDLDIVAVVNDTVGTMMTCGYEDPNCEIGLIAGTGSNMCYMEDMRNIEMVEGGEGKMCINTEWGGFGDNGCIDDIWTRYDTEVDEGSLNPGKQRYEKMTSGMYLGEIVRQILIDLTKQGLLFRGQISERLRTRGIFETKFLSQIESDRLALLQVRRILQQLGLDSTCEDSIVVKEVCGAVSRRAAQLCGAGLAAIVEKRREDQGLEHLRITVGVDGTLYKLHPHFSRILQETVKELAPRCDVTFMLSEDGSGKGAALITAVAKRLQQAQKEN", "assay": "HKDC1 hexokinase inhibitors, dose response, biochemical, W721R variant (AID 504729)", "type": "functional"}, "[25]": {"target": "Nonstructural protein 1 (Influenza A virus, UniProt Q194T2)", "type": "functional, Influenza A virus (A/California/07/2009(H1N1))"}, "[26]": {"assay": "Luminescence Cell-Based Dose Response HTS to Identify Inhibitors of 5'UTR Stem-Loop Driven Prion Protein mRNA Translation in H4 Neuroglioblastoma Cells. [Related pubchem assays: 1827 (Project Summary), 1813 (Primary HTS)]", "type": "functional"}, "[27]": {"assay": "C. albicans growth with fluconazole, confirmation, fluorescence, retest (AID 2467)", "type": "functional, cell-based"}, "[28]": {"target": "Serine/threonine-protein phosphatase PP1-alpha catalytic subunit (Homo sapiens, UniProt P62136)", "assay": "PP1 phosphatase inhibitors, dose response, biochemical, fluorescence (AID 2394)"}}, "note": "Active and inactive are the calls of the source."}
{"compound": "O=[N+]([O-])c1c(Nc2ccccn2)cc(Cl)c2nonc12", "values": [{"measurement": "AC50", "setting": "[1]", "result": "20.3 µM (active)"}, {"measurement": "EC50", "setting": "[2]", "result": "2.43 µM (active)"}, {"measurement": "CC50", "setting": "[3]", "result": "16.7 µM (active)"}]}
{"compound": "CC(C)(CO)CNc1nccc(-c2c(-c3ccc(F)cc3)nc3c(CC4CC4)nccn23)n1", "values": [{"measurement": "Ki", "setting": "[4]", "result": "> 2 µM (inactive)"}, {"measurement": "Ki", "setting": "[5]", "result": "> 7.94 µM (inactive)"}, {"measurement": "Ki", "setting": "[6]", "result": "> 10 µM (inactive)"}, {"measurement": "Ki", "setting": "[7]", "result": "5.01 µM (active)"}, {"measurement": "Ki", "setting": "[8]", "result": "> 7.94 µM (inactive)"}, {"measurement": "Ki", "setting": "[9]", "result": "> 2 µM (inactive)"}, {"measurement": "Ki", "setting": "[10]", "result": "> 7.94 µM (inactive)"}, {"measurement": "Ki", "setting": "[11]", "result": "> 2 µM (inactive)"}, {"measurement": "Ki", "setting": "[12]", "result": "> 6.31 µM (inactive)"}, {"measurement": "Ki", "setting": "[13]", "result": "> 10 µM (inactive)"}, {"measurement": "Ki", "setting": "[14]", "result": "> 3.16 µM (inactive)"}, {"measurement": "Ki", "setting": "[15]", "result": "> 5.01 µM (inactive)"}, {"measurement": "Ki", "setting": "[16]", "result": "3.98 µM (active)"}, {"measurement": "Ki", "setting": "[17]", "result": "> 0.631 µM (inactive)"}, {"measurement": "Ki", "setting": "[18]", "result": "> 1.58 µM (inactive)"}, {"measurement": "Ki", "setting": "[19]", "result": "> 6.31 µM (inactive)"}, {"measurement": "Ki", "setting": "[20]", "result": "> 3.98 µM (inactive)"}, {"measurement": "Ki", "setting": "[21]", "result": "> 1.58 µM (inactive)"}, {"measurement": "Ki", "setting": "[22]", "result": "> 2.51 µM (inactive)"}, {"measurement": "Ki", "setting": "[23]", "result": "> 7.94 µM (inactive)"}]}
{"compound": "Cc1ccc(S(=O)(=O)/N=C2\\C=C(Nc3cccc(C(=O)O)c3)C(=O)c3ccccc32)cc1", "values": [{"measurement": "IC50", "setting": "[24]", "result": "4.31 µM (active)"}, {"measurement": "IC50", "setting": "[25]", "result": "19.9 µM (active)"}]}
{"compound": "CC[C@@H](C)[C@H](CNC)NC[C@@H](Cc1cccc2ccccc12)NCCc1cccc(C(F)(F)F)c1", "values": [{"measurement": "EC50", "setting": "[26]", "result": "> 120 µM (not active)"}, {"measurement": "EC50", "setting": "[27]", "result": "> 38 µM (not active)"}]}
{"compound": "Cc1ccc(C(=O)NC2(O)C(=O)c3ccccc3C2=O)cc1C", "values": [{"measurement": "IC50", "setting": "[28]", "result": "> 67 µM (not active)"}]}
